Key:
[1] = test system: antigen-specific CD8 T cells in KP lung adenocarcinoma; type: in vivo, mouse; conditions: 5–6 weeks; for CD8 T cell response magnitude, antigen expressed alone: LucA (mALG8) or LucL (mLAMA4); for proportion of TCF1+ progenitor cells, antigens co-expressed / CD8 T cell response magnitude, antigens co-expressed: LucAL; for CD8 T cell response magnitude, antigens co-expressed: compared to the single-antigen setting
H-2K^b = H-2K^b (Mus musculus, UniProt P01901, A160C/Y105C); assay: Differential Scanning Fluorimetry of pMHC thermal melting; type: binding; conditions: DSF, 50 mM HEPES pH 7.5, SYPRO Orange; Tm averaged from 3 experiments; compared to mLAMA4
Sequence of H-2K^b (P01901 22-295 Y105C/A160C limits assumed): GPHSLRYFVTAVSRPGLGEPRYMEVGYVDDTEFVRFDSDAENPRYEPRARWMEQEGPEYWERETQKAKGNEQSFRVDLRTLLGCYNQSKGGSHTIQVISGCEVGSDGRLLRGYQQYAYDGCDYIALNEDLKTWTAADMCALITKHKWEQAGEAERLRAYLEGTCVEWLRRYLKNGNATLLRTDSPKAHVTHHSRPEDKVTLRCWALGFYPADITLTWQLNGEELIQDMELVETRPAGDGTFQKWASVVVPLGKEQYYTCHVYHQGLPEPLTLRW
Sequence of H-2K^b (P61769 21-119 partner): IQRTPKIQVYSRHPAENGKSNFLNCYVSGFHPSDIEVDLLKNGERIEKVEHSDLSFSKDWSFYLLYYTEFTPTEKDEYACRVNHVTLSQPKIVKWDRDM

Sequence | CD8 T cell response magnitude, antigen expressed alone [1] | proportion of TCF1+ progenitor cells, antigens co-expressed [1] | CD8 T cell response magnitude, antigens co-expressed [1] | pMHC complex stability (Koff), relative to mLAMA4 (H-2K^b)
ITYTWTRL [mALG8] | responses of equivalent magnitude | increased for both responses (Figure S3M), trending towards greater enrichment for the mALG8 response | neither response became dominant in terms of T cell expansion, but both decreased in magnitude compared to the single-antigen setting | similar, but slightly lower affinity and stability
VGFNFRTL [mLAMA4] | responses of equivalent magnitude | increased for both responses | neither response became dominant in terms of T cell expansion, but both decreased in magnitude compared to the single-antigen setting | –
